How the values were obtained:
[1] = system: SHR-SP rats; experiment: 2-lever discriminative reaction task in SHR-SP rats (ADHD model); type: in vivo, rat
From the text: A. Test method (1) While spontaneously hypertensive rat (SHR) is a hypertension model rat widely used in research, this lineage not only develops hypertension but also behaves similarly in the juvenile stage to patients with attention deficit/hyperactivity disorder (attention-deficit/hyperactivity disorder: ADHD), as evidenced by disrupted retention of attention and the like (Sagvolden T, Russell V A, Aase H, Johansen E B, Farshbaf M. (2005): Rodent models of attention-deficit/hyperactivity disorder. Biol Psychiatry. 57(11): 1239-47). Particularly, SHR-SP (subtype of SHR) in the juvenile stage is recently recognized as an animal model of developmental disorder such as ADHD by those of ordinary skill in the art (Ueno K I, Togashi H, Mori K, Matsumoto M, Ohashi S, Hoshino A, Fujita T, Saito H, Minami M, Yoshioka M. (2002): Behavioural and pharmacological relevance of stroke-prone spontaneously hypertensive rats as an animal model of a developmental disorder. Behav Pharmacol. 13(1): 1-13).
Thus, those of ordinary skill in the art consider that SHR-SP is suitable as an ADHD model.
Therefore, the inventor employed the SHR-SP rats and evaluated the effect of compound A on ADHD.
(2) The test was performed using 24 SHR-SP rats and 12 WKY rats (both 5-week-old; provided by CLEA Japan, Inc.). They were reared at 12 hr light-dark cycle (light was on at 7:00 am) and allowed free access to water. The feeding was restricted such that the body weight was 85% of that by free food ingestion. All rats were subjected to handling before the test.
As a test apparatus, 4 Skinner boxes each equipped with a 45 mg feed pellet feeding tray (reward delivery opening) in the center of the wall and a cue lamp and a retractable lever set on the sides of the tray were set (see FIG. 1).
(3) The rats were trained for 2 days for lever pressing-feeding associative learning. One session consisted of 30 trials or 900 sec. Two levers were presented, pressing either lever affords feed pellets (reinforcer), and a buzzer sound indicating correctness was made. Solely in the training on the initial day, feed pellets were automatically given with a buzzer every 45 seconds. All animals reached the criteria obtaining 30 feed pellets within 300 sec. (4) In the test session, a 2-lever discriminative reaction task was performed. In the 2-lever discriminative reaction task, 1 session consisted of 30 sets of ITI (inter-trial interval) for 30 sec and reaction latency for 30 sec maximum. The house lamp was turned on at the start of the session to indicate both retractable levers. The lever pressing reaction of the animal was sequentially recorded while indicating the levers until completion of 30 trials. […]

[2] = system: SHR-SP; conditions: at a low dose; cited from earlier work

Compound	transition of total number of reaction during trials (index of impulsivity) ([1]; 1.0 mg/kg oral daily, up to session 4, positive drug group vs control group, FIG. 5)	correct answer latency (reaction latency when correct answer was selected) (index of motivation, sedation and the like) ([1]; 1.0 mg/kg oral, 14 consecutive days, positive drug group vs control group, FIG. 7)	number of correct answers (number of reward obtained) (index of attentional deficit) ([1]; 1.0 mg/kg oral, 14 consecutive days, positive drug group vs control group, p=0.09, FIG. 6)	total number of reaction during trials (index of impulsivity) ([1]; 1.0 mg/kg oral, 14 consecutive days, session 11, positive drug group vs control group, t-test p=0.09, FIG. 5)	effect on abnormal behaviors of SHR-SP [2]
CCC(=O)NCC[C@@H]1CCc2ccc3c(c21)CCO3 [compound A, (S)—N-[2-(1,6,7,8-tetrahydro-2H-indeno[5,4-b]furan-8-yl)ethyl]propionamide]	similar	did not show much difference	tended to increase	tended to decrease	
COC(=O)C(c1ccccc1)C1CCCCN1 (centres unmarked) [methylphenidate]					improving effect

Source: US20170128409A1, “PROPHYLACTIC OR THERAPEUTIC AGENT FOR ATTENTION DEFICIT/HYPERACTIVITY DISORDER” (Takeda Pharmaceutical Company Limited, priority 2008, published 2017)
